“And” between values parts separate entries of the source, which are not always exact repeats. Equal values may be shown once.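 All cell lines were grown in 96-well plates and treated with compound for 48 hours. GI50 marks 50% less growth. Definition used: TGI = concentration required for complete inhibition of growth.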

For this experiment, the system named is MDA-MB-468 breast. Put plainly: DTP human tumour cell line panel, 48 h.

For `C=C1C(=O)O[C@H]2[C@H]1CC/C(COC(=O)NCC(C)c1ccc(CC(C)C)cc1)=C\CC[C@@]1(C)O[C@@H]21` (stereo partly drawn), the GI50 – broadly, the concentration giving 50% growth inhibition – was 0.656 µM and the TGI (commonly the concentration at which net growth stops) worked out at 1.84 µM.
In the case of `Cn1cc(C2=C(c3cn(C4CCN(Cc5ccccn5)CC4)c4ccccc34)C(=O)NC2=O)c2ccccc21`, the GI50 is 2.08 µM and the TGI is more than 100 µM.
For `O=c1oc2ccc(I)cc2c(=O)n1-c1ccc(Cl)cc1F` the same measures were 2.11 µM and 5.81 µM.
Take `COc1ccc(C(=O)c2ccc([As]=O)cc2)cc1` (stereo not drawn): the GI50 was 0.0692 µM and the total growth inhibition concentration (TGI) came to 0.242 µM.
As to `O=C(Nc1ccc(Cl)c(Cl)c1)NS(=O)(=O)c1cnccc1Oc1ccc(F)cc1`, the GI50 was 4.26 µM and the TGI was more than 100 µM.
As for `C=C1C[C@@H]2CC[C@@]34C[C@H]5O[C@H]6[C@@H](O3)[C@H]3O[C@H](CC[C@@H]3O[C@H]6[C@@H]5O4)CC(=O)C[C@@H]3[C@@H](OC)[C@@H](C[C@H](O)CN)O[C@H]3C[C@H]3O[C@@H](CC[C@@H]1O2)C[C@@H](C)C3=C`, the GI50 was less than 0.01 µM and the TGI was 0.0661 µM.
Consider `CCC1=CC2CN(C1)Cc1c([nH]c3ccccc13)[C@@](C(=O)OC)(c1cc3c(cc1OC)N(C)[C@H]1[C@@](O)(C(=O)OC)[C@H](OC(C)=O)[C@]4(CC)C=CCN5CC[C@]31[C@@H]54)C2` (stereo partly drawn), for which the TGI was 21 µM.
On to `O=C1CCCCN1CCCCC#Cc1cccc(C#Cc2cccnc2)c1`, for which the GI50 is 10.2 µM and the TGI amounted to 28.5 µM.
Consider `CCCCCCCCCCCCCCCC[N+]1(C)CCOCC1`, for which the GI50 was 0.374 µM and the TGI stood at 2.16 µM.
`COc1ccc(OC)c(Cn2cc3c(c2-c2ccccc2)CCc2cnoc2-3)c1`: the GI50 is 2.64 µM and the TGI came out at 11.5 µM.
As to `CN(C)c1ccc(-c2ccc(-c3ccc(C(=N)N)cc3)s2)cc1`, the GI50 is 1.94 µM and the TGI is 3.76 µM.
`OC(c1cc2ccc(C(F)(F)F)cc2c2cc(C(F)(F)F)ccc12)C1CCCCN1` (stereo not drawn): the GI50 was 1.6 µM and the total growth inhibition concentration (TGI) was found to be 3.09 µM.
For `O=C(O)[C@@H](Cc1ccc2ccccc2c1)NC(=O)n1c2ccccc2c2ccccc21` the same measures were 1.9 µM and 7.17 µM.
For `c1ccc2[nH]c(-c3ccc(Nc4nc(N5CCCCC5)nc(N5CCOCC5)n4)cc3)nc2c1`, the GI50 is 2.68 µM and the TGI amounted to 6.51 µM.
The like results for `Nc1ccc(/C=C/C(=O)NCc2cc3cc(-c4ccc(C(=O)N5CCC(F)(F)CC5)cc4)cc(-c4ccc(F)cc4)c3o2)cn1` were, in that order, 22.6 µM and more than 100 µM.
As to `COc1cc(NCCCCCCCNC(C)C)c2nccc(C)c2c1`, the GI50 is 3.11 µM and the TGI worked out at 14.7 µM.
The like results for `CN1/C(=C\C=C\C2=[N+](C)c3ccccc3C2(C)C)C(C)(C)c2ccccc21` were, in that order, 0.0217 µM and 0.123 µM.
Consider `O=C1NC(=O)c2c1c1c3ccccc3ccc1c1[nH]c3ccccc3c21`, for which the GI50 is 0.953 µM and the TGI was found to be 8.87 µM.
For `C(=N\Nc1nnn(Cc2ccccc2)n1)/c1ccccc1` the same measures were 1.48 µM and 11.9 µM.
The like results for `O=S(=O)(NCCCNc1nccc(-c2c(-c3ccc(F)cc3)nc3sccn23)n1)c1ccc2ccccc2c1` were, in that order, 3.87 µM and more than 100 µM.
The like results for `C=C1C(=O)O[C@H]2[C@H]1CC/C(C=Nc1c(N)cc(C(F)(F)F)cc1Br)=C\CC[C@@]1(C)O[C@@H]21` were, in that order, 1.88 µM and 4.19 µM.
As to `CN(C)C(=O)O[C@H]1CN[C@H](C#Cc2cc3ncnc(Nc4ccc(OCc5cccc(F)c5)c(Cl)c4)c3s2)C1`, the GI50 is 0.595 µM and the TGI came to 5.11 µM.
With `CCc1c2c(nc3ccc(OC(=O)N4CCC(N5CCCCC5)CC4)cc13)-c1cc3c(c(=O)n1C2)COC(=O)[C@]3(O)CC`, the TGI is 1.79 µM and 1.51 µM and 5.77 µM.
On to `O=c1c(F)cn(Cc2ccccc2CCl)c(=O)n1Cc1ccccc1CCl`, for which the GI50 is 0.684 µM and the TGI stood at 2.27 µM.
As for `C/C(=N\NC(=S)Nc1ccc(Br)cc1)c1cc2ccccc2oc1=O`, the GI50 is 1.22 µM and the TGI was found to be 5.82 µM.
For `CCOc1ccc(-c2nnc(C3CC(NC(=O)c4cccc5nccnc45)C3)n2-c2ccccc2F)nc1` (stereo not drawn) the same measures were 10 µM and 71.5 µM.
The like results for `CCNC(=O)c1noc(-c2cc(C(C)C)c(O)cc2O)c1-c1ccc(CN2CCOCC2)cc1` were, in that order, less than 0.01 µM and 0.055 µM.
For `O=S(=O)(CCCl)c1ccc(Cl)cc1`, the GI50 is 1.82 µM and the concentration for total growth inhibition (TGI) turned out to be 5.77 µM.
For `Cc1ccc(-c2nc3nc(-c4ccc(F)cc4)nc(N4CCCNCC4)c3o2)cc1` the same measures were 1.58 µM and 3.18 µM.
The like results for `COc1ccc(CN2C3CC2CN(c2ccc(-c4cc(OCC(C)(C)O)cn5ncc(C#N)c45)cn2)C3)cn1` were, in that order, 8.09 µM and more than 100 µM.
The like results for `O=C(N/N=C/c1ccccc1O)c1ccccc1` were, in that order, 0.292 µM and more than 100 µM.
Turning to `O=C1OCC2=C1C(c1ccccc1)c1cc3c(cc1N2CCO)OCO3` (stereo not drawn), the GI50 is 1.22 µM and the TGI was determined as 4.61 µM.
The like results for `CCCCn1c(-c2ccc(C(=O)O/N=C(\N)c3ccc4c(c3)OCO4)cc2)nc(-c2ccccc2)c1-c1ccccc1` were, in that order, 3.83 µM and more than 100 µM.
The like results for `CNC(=O)c1nn(C)c2c1C(C)(C)Cc1cnc(Nc3ccc(N4CCN(C)CC4)cc3)nc1-2` were, in that order, 0.813 µM and more than 4.2 µM.
For the molecule `COC(=O)C1(C)Cc2cc(OC(C)=O)c(OC(C)=O)cc2N1` (stereo not drawn), the GI50 was 1.9 µM and the TGI was found to be 6.53 µM.
